Key:
Assay type in all cases: functional, cell-based
Details in all cases: Oocyte
[1] = biological target: Monocarboxylate transporter 8 (Rattus norvegicus) (UniProt Q8K1P8); assay: TP_TRANSPORTER: inhibition of 3,3',5-triiodothyronine uptake (3,3',5-triiodothyronine:10nM, bromosul-fophthalein: 100 uM) in Xenopus laevis oocytes; parameters: scale not given: the % may be the effect or the level left
[2] = biological target: Monocarboxylate transporter 8 (Rattus norvegicus) (UniProt Q8K1P8); assay: TP_TRANSPORTER: inhibition of thyroxine uptake (thyroxine:10nM, bromosul-fophthalein: 100 uM) in Xenopus laevis oocytes; parameters: scale not given: the % may be the effect or the level left
[3] = biological target: Monocarboxylate transporter 8 (Rattus norvegicus) (UniProt Q8K1P8); assay: TP_TRANSPORTER: inhibition of thyroxine uptake (thyroxine:10nM, L-thyroxine: 10 uM) in Xenopus laevis oocytes; parameters: scale not given: the % may be the effect or the level left
[4] = biological target: Monocarboxylate transporter 8 (Rattus norvegicus) (UniProt Q8K1P8); assay: TP_TRANSPORTER: inhibition of 3,3',5-triiodothyronine uptake (3,3',5-triiodothyronine:10nM, L-thyroxine: 10 uM) in Xenopus laevis oocytes; parameters: scale not given: the % may be the effect or the level left
[5] = biological target: Monocarboxylate transporter 8 (Rattus norvegicus) (UniProt Q8K1P8); assay: TP_TRANSPORTER: uptake in Xenopus laevis oocytes
[6] = biological target: Monocarboxylate transporter 8 (Rattus norvegicus) (UniProt Q8K1P8); assay: TP_TRANSPORTER: inhibition of 3,3',5-triiodothyronine uptake (3,3',5-triiodothyronine:10nM, Tryptophan: 100 uM) in Xenopus laevis oocytes; parameters: scale not given: the % may be the effect or the level left
[7] = biological target: Monocarboxylate transporter 8 (Rattus norvegicus) (UniProt Q8K1P8); assay: TP_TRANSPORTER: inhibition of thyroxine uptake (thyroxine:10nM, Tryptophan: 100 uM) in Xenopus laevis oocytes; parameters: scale not given: the % may be the effect or the level left
[8] = biological target: Monocarboxylate transporter 8 (Rattus norvegicus) (UniProt Q8K1P8); assay: TP_TRANSPORTER: inhibition of thyroxine uptake (thyroxine:10nM, Tyrosine: 100 uM) in Xenopus laevis oocytes; parameters: scale not given: the % may be the effect or the level left
[9] = biological target: Monocarboxylate transporter 8 (Rattus norvegicus) (UniProt Q8K1P8); assay: TP_TRANSPORTER: inhibition of 3,3',5-triiodothyronine uptake (3,3',5-triiodothyronine:10nM, Tyrosine: 100 uM) in Xenopus laevis oocytes; parameters: scale not given: the % may be the effect or the level left
[10] = biological target: Monocarboxylate transporter 8 (Rattus norvegicus) (UniProt Q8K1P8); assay: TP_TRANSPORTER: inhibition of 3,3',5-triiodothyronine uptake (3,3',5-triiodothyronine:10nM, D-3,3',5-triiodothyronine: 10 uM) in Xenopus laevis oocytes; parameters: scale not given: the % may be the effect or the level left
[11] = biological target: Monocarboxylate transporter 8 (Rattus norvegicus) (UniProt Q8K1P8); assay: TP_TRANSPORTER: inhibition of thyroxine uptake (thyroxine:10nM, D-3,3',5-triiodothyronine: 10 uM) in Xenopus laevis oocytes; parameters: scale not given: the % may be the effect or the level left
[12] = biological target: Monocarboxylate transporter 8 (Rattus norvegicus) (UniProt Q8K1P8); assay: TP_TRANSPORTER: inhibition of thyroxine uptake (thyroxine:10nM, D-thyroxine: 10 uM) in Xenopus laevis oocytes; parameters: scale not given: the % may be the effect or the level left
[13] = biological target: Monocarboxylate transporter 8 (Rattus norvegicus) (UniProt Q8K1P8); assay: TP_TRANSPORTER: inhibition of 3,3',5-triiodothyronine uptake (3,3',5-triiodothyronine:10nM, D-thyroxine: 10 uM) in Xenopus laevis oocytes; parameters: scale not given: the % may be the effect or the level left
[14] = biological target: Monocarboxylate transporter 8 (Rattus norvegicus) (UniProt Q8K1P8); assay: TP_TRANSPORTER: inhibition of thyroxine uptake (thyroxine:10nM, N-bromoacetyl-3,3',5-triiodothyronine: 10 uM) in Xenopus laevis oocytes; parameters: scale not given: the % may be the effect or the level left
[15] = biological target: Monocarboxylate transporter 8 (Rattus norvegicus) (UniProt Q8K1P8); assay: TP_TRANSPORTER: inhibition of 3,3',5-triiodothyronine uptake (3,3',5-triiodothyronine:10nM, N-bromoacetyl-3,3',5-triiodothyronine: 10 uM) in Xenopus laevis oocytes; parameters: scale not given: the % may be the effect or the level left

Monocarboxylate transporter 8 (Rattus norvegicus), sequence (Q8K1P8 whole entry): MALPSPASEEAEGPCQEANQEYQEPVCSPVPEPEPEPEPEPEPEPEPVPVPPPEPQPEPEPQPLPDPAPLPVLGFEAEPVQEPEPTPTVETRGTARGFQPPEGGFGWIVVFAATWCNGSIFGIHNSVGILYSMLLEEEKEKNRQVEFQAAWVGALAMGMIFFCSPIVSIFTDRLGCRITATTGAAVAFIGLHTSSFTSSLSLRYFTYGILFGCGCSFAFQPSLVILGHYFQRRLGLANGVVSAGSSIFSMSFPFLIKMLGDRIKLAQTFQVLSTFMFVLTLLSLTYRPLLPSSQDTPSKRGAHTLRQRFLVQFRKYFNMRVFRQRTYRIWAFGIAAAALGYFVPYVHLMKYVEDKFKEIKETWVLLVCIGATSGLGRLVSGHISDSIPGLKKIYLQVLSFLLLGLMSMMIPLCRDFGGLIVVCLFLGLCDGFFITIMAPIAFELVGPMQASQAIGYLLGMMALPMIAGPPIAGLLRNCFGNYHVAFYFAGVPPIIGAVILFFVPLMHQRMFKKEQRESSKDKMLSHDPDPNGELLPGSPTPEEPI

Molecule `O=C1OC(c2ccc(O)c(S(=O)(=O)O)c2)(c2ccc(O)c(S(=O)(=O)O)c2)c2c(Br)c(Br)c(Br)c(Br)c21` has an Activity [1] of 81% and an Activity [2] of 94%.

`N[C@@H](Cc1cc(I)c(Oc2cc(I)c(O)c(I)c2)c(I)c1)C(=O)O` gave an Activity [3] of 69% and an Activity [4] of 26%.

For `N[C@@H](Cc1ccccc1)C(=O)O`, the Activity [5] was “is not a substrate [-]”.

`CC(C)C[C@H](N)C(=O)O` was tested, and the Activity [5] was “is not a substrate [-]”.

With `N[C@@H](Cc1c[nH]c2ccccc12)C(=O)O` the Activity [6] was 0%, the Activity [5] was “is not a substrate [-]” and the Activity [7] was 22%.

With `N[C@@H](Cc1ccc(O)cc1)C(=O)O` the Activity [8] was 37%, the Activity [5] was “is not a substrate [-]” and the Activity [9] was 0%.

`O=C(O)[C@@H](Cc1cc(I)c(Oc2cc(I)c(O)c(I)c2)c(I)c1)NS(=O)(=O)O` was tested, and the Activity [5] was “is not a substrate [-]”.

With `N[C@@H](Cc1ccc(Oc2cc(I)c(O)c(I)c2)c(I)c1)C(=O)O` the Activity [10] was 24% and the Activity [11] was 72%.

For `NC(Cc1ccc(Oc2ccc(O)c(I)c2)c(I)c1)C(=O)O` (stereo unspecified), the Activity [5] was “substrate [+]”.

Work on `N[C@H](Cc1cc(I)c(Oc2cc(I)c(O)c(I)c2)c(I)c1)C(=O)O` yielded an Activity [12] of 76% and an Activity [13] of 21%.

In the case of `N[C@@H](Cc1cc(I)c(Oc2cc(I)c(OS(=O)(=O)O)c(I)c2)c(I)c1)C(=O)O`, the Activity [5] is reported as “is not a substrate [-]”.

Molecule `O=C(CBr)N[C@@H](Cc1cc(I)c(Oc2ccc(O)c(I)c2)c(I)c1)C(=O)O` has an Activity [14] of 90% and an Activity [15] of 67%.

Source: ChEMBL document CHEMBL2074163, “Identification of monocarboxylate transporter 8 as a specific thyroid hormone transporter” (J Biol Chem, 2003)
